The nature of one data set: in vivo. The note with it: male, Sprague-Dawley, rat, po, 6 mg/kg.
The conditions of data set [1]: male, Sprague-Dawley, rat, in vivo, po, 6 mg/kg.
Method: (§1) Animals were given free access to food and water throughout the study and maintained under a 12-h light/dark cycle with temperature and humidity controlled according to Home Office regulations.
(§2) Blood samples (230 μL) were taken from the carotid artery at the following time points and placed in heparinized tubes: predose, 0.25, 0.5, 1, 2, 4, 8 and 24 h post dose. After the final time point the animals were sacrificed by an overdose of anaesthetic.
(§3) Blood samples were centrifuged to obtain the plasma, which was transferred to a separate labelled container. Aliquots from the individual time points for the three animals were analyzed singly. 80 μL of plasma was diluted with 20 μL of 1:1 ACN:water, then 800 μL chilled ACN was added, samples briefly vortex mixed and the centrifuged at 13000 rpm for 5 min at 4 °C. 500 μL of the resultant supernatant was further diluted with 500 μL water.
(§4) 20 μL sample was analyzed by LC-MS/MS using a C18 5 μm Gemini UHPLC column running a gradient of 90% 0.04% acetic acid in water to 90% ACN over 3 min at a flow rate of 0.5 mL min^−1. MS data was acquired under multiple reaction monitoring conditions using a turbo spray ion source. The concentration in the plasma was determined by comparison to standard curves of the administered compound prepared in blank plasma matrices and treated in an identical manner to the samples.

Molecules are shown by their SMILES. Where two headings read alike, the source gives them in different places.

Method for in vivo: as §1, §2, §3, §4

Consider `CC(C)Cc1ccc(C(C)C(=O)O)cc1` (stereo not shown) [Ibuprofen], for which, in the data set “in vivo”, the exposure (AUC) was 14000 ± 1800 ng·h/mL. The molecule also came in with a Cmax in “in vivo” (CMax) of 5700 ± 600 ng/mL. The Tmax in the data set “in vivo” (tmax) was 1 h; in data set [1], 0.7 ± 0.3 h.

As usually defined, the AUC is the area under the concentration-time curve, a measure of exposure. Lower therefore signals less exposure. For orientation: Cmax means the peak of the concentration-time curve. What is called Tmax is the time at which the peak concentration occurs.
